Values quoted from earlier work, collected in patent publication US20060057203A1 (priority 2002, published 2006).

In the case of `NC(=O)N1c2ccccc2CC(=O)c2ccccc21` [oxcarbazepine], the solubility in water is given as “practically insoluble”.
